# Patent publication US20120202701A1, “AN ANTIBODY-GLYCAN COMPLEX TARGETING THE DISIALYL CORE II AND SIALYL LEWIS X STRUCTURES, AND USES THEREOF INVOLVING ANALYSIS OF STEM CELLS OR CANCER CELLS” (GLYKOS FINLAND OY, priority 2009, published 2012)
# Tested on: mAb CHO-131
# Test: Glycan microarray analysis (Consortium for Functional Glycomics, printed array version 4.0), glycan binding of mAb CHO-131
# Details: glycan microarray, as described
# Procedure: mAb CHO-131 was purchased from R&D Systems (MAB996). mAb CSLEX was purchased form BD Biosciences (551344). Glycan microarray analysis was carried out by the Consortium for Functional Glycomics. Glycan microarrays were printed as described (Blixt 2004). Version 4.0 of the printed glycan array was used for analysis. Binding analysis was performed at 50 μg/ml of antibody. Data are reported as average RFU of 6 replicates after removal of highest and lowest values.
row,"binding to CHO-131 antibody, in words",SMILES
1,some binding,"CC(=O)N[C@H]1[C@H](OCCCN)O[C@H](CO)[C@@H](O)[C@@H]1O[C@@H]1O[C@H](C(=O)O)[C@@H](O)[C@H](O)[C@H]1O [Chart Number 299, GlcAb1-3GlcNAcb-Sp8, reference compound]"

# Same assay, conditions: mAb CHO-131 at 50 μg/ml; average RFU of 6 replicates after removal of highest and lowest values
row,RFU,SMILES
1,243 RFU,CC(=O)N[C@H]1[C@H](OCCCN)O[C@H](COS(=O)(=O)O)[C@@H](O[C@@H]2O[C@H](CO[C@]3(C(=O)O)C[C@H](O)[C@@H](NC(C)=O)[C@H]([C@H](O)[C@H](O)CO)O3)[C@H](O)[C@H](O)[C@H]2O)[C@@H]1O [compound 256]
2,274 RFU,NCCCO[C@@H]1O[C@H](C(=O)O)[C@@H](O)[C@H](O)[C@H]1O [compound 193]
3,271 RFU,CC(=O)N[C@H]1[C@H](OCCN)O[C@H](CO)[C@@H](O[C@@H]2O[C@H](CO)[C@H](O)[C@H](O[C@]3(C(=O)O)C[C@H](O)[C@@H](NC(C)=O)[C@H]([C@H](O)[C@H](O)COC(C)=O)O3)[C@H]2O)[C@@H]1O [compound 323]
4,1773 RFU,CC(=O)N[C@H]1C(OCCN)O[C@H](COS(=O)(=O)O)[C@@H](O)[C@@H]1O[C@@H]1O[C@H](COS(=O)(=O)O)[C@H](O)[C@H](O)[C@H]1O (some centres unmarked) [compound 440]
5,227 RFU,NCCCO[C@H]1O[C@H](C(=O)O)[C@@H](O)[C@H](O)[C@H]1O [compound 192]
6,138 RFU,C[C@@H]1O[C@@H](O[C@H]2[C@H](O[C@@H]3O[C@H](CO)[C@H](O)[C@H](O)[C@H]3O)[C@@H](COS(=O)(=O)O)OC(OCCN)[C@@H]2O)[C@@H](O)[C@H](O)[C@@H]1O (some centres unmarked) [compound 281]
7,403 RFU,CC(=O)N[C@H]1C(OCCCN)O[C@H](COS(=O)(=O)O)[C@@H](O[C@@H]2O[C@H](CO)[C@H](O)[C@H](OS(=O)(=O)O)[C@H]2O)[C@@H]1O[C@@H]1O[C@@H](C)[C@@H](O)[C@@H](O)[C@@H]1O (some centres unmarked) [compound 210]
8,138 RFU,CC(=O)N[C@H]1[C@H](OCCN)O[C@H](CO)[C@@H](O[C@@H]2O[C@H](CO)[C@H](O)[C@H](O[C@@H]3O[C@H](COS(=O)(=O)O)[C@@H](O)[C@H](O)[C@H]3NC(C)=O)[C@H]2O)[C@@H]1O [compound 351]
9,256 RFU,CC(=O)N[C@H]1[C@H](OCCCN)O[C@H](COS(=O)(=O)O)[C@@H](O[C@@H]2O[C@H](CO)[C@H](O)[C@H](O[C@]3(C(=O)O)C[C@H](O)[C@@H](NC(C)=O)[C@H]([C@H](O)[C@H](O)CO)O3)[C@H]2O)[C@@H]1O[C@@H]1O[C@@H](C)[C@@H](O)[C@@H](O)[C@@H]1O [compound 241]

# More lines, now with the values behind:
row,SMILES,RFU
1,CC(=O)N[C@H]1[C@H](OCCCN)O[C@H](COS(=O)(=O)O)[C@@H](O[C@@H]2O[C@H](CO)[C@H](O)[C@H](OS(=O)(=O)O)[C@H]2O)[C@@H]1O [compound 32],584 RFU
2,NCCO[C@@H]1O[C@H](COS(=O)(=O)O)[C@@H](O[C@@H]2O[C@H](CO)[C@H](O)[C@H](O)[C@H]2O)[C@H](O)[C@H]1O [compound 146],148 RFU
3,NCCCO[C@@H]1O[C@H](CO)[C@H](O)[C@H](OS(=O)(=O)O)[C@H]1O [compound 35],345 RFU
4,NCCCO[C@@H]1O[C@H](COS(=O)(=O)O)[C@@H](O[C@@H]2O[C@H](COS(=O)(=O)O)[C@H](O)[C@H](O)[C@H]2O)[C@H](O)[C@H]1O [compound 42],505 RFU
5,NCCCO[C@@H]1O[C@H](COS(=O)(=O)O)[C@@H](O[C@@H]2O[C@H](CO)[C@H](O)[C@H](OS(=O)(=O)O)[C@H]2O)[C@H](O)[C@H]1O [compound 25],903 RFU
6,CC(=O)N[C@H]1[C@H](OCCN)O[C@H](COS(=O)(=O)O)[C@@H](O[C@@H]2O[C@H](CO)[C@H](O)[C@H](OS(=O)(=O)O)[C@H]2O)[C@@H]1O [compound 31],266 RFU
7,CC(=O)N[C@H]1[C@H](OCCN)O[C@H](CO)[C@@H](O[C@@H]2O[C@H](COS(=O)(=O)O)[C@H](OS(=O)(=O)O)[C@H](O)[C@H]2O)[C@@H]1O [compound 36],427 RFU
